Data set [1] has as its system Clostridium collagenase IV. Nature of the data set: Collagenase inhibitory activity (Enzcheck kit, quenched fluorescent gelatin). Type of data set: biochemical. On the procedure:
In order to ascertain whether other benefits may be attained by the use of meroterpenes in skin care formulations, a study was conducted on the impact, if any, the presence of bakuchiol may have on collagenase: a collagenolytic enzyme responsible for much of the collagen damage associated with UV exposure and photoaging in general. Collagenase activity was measured with an Enzcheck kit from Molecular Probes (Carlsbad, CA, USA) using quenched fluorescent gelatin and Clostridium collagenase IV, a generic metalloproteinase. Test material (aqueous solutions 1000ug/ml, 100ug/ml, 10ug/ml and 1ug/ml made from 10mg/ml stock in DMSO) was incubated in the presence of collagenase substrate - quenched fluorescin-linked gelatin and in the presence of the proteolytic enzyme. Phenanthroline, a potent metalloprotease (MP) inhibitor was used as positive control at 100ug/ml. The kinetics of the release of the digested, fluorescent gelatin were measured at excitation/emission wavelengths of 485/530nm with Millipore Cytofluor 2350 microfluorometer.

Data set [2] is described as follows: Skin sensitivity: repeated occlusive patch test, nine inductive patchings and a challenge. In kind it is in vivo. As to conditions: 5% dilution in corn oil, 111 subjects. On the procedure: Reactions were scored 24 and 48 hours after application.
Data set [3] deals with Propionibacterium acne. Nature of the data set: Median inhibitory concentration (IC50) in BHI broth, reading at 610 nm. In kind it is cell-based. On the procedure: (§1) Two series of tests were conducted to evaluate the bioefficacy of bakuchiol, salicylic acid and the combination of the two against Propionibacterium acne. The first evaluated the median inhibitory concentration (IC50) of each of the two actives in order to set the dosing for the second test. The second test ascertained the bioefficacy, as represented by the zone of inhibition, of each active and their combination in relation to P. acne. In both sets of tests, inoculums of 1.0 x 10^6 cfu/ml P. acne were used.
P. acne organisms were inoculated into Brain Heart Infusion (BHI) broth and incubated at 37°C for 24 hrs. Thereafter, the culture was serially diluted to a 10^-6 dilution. 100 µl aliquots of the 10^-6 dilution culture were then added to sterile test tubes containing 10 ml fresh BHI broth serial solutions of bakuchiol or salicylic acid. The serial solutions contained either active at from 0.5 to 50 µg/ml concentrations in 0.5 µg/ml increments, i.e., 0.5, 1.0, 1.5,..., 50.0 µg/ml. An inoculated control, free of either active, was also evaluated. The inoculated test tubes were then incubated at 37°C for 48 hrs. UV spectrophotometric readings were then made of each test tube at 610 nm and the values plotted.

For data set [4], the target named is T1, human neutrophil elastase (Homo sapiens, UniProt P08246).
T1 construct: purchased Calbiochem of San Diego, CA, US 324681
T1 sequence (P08246 30-247 limits assumed): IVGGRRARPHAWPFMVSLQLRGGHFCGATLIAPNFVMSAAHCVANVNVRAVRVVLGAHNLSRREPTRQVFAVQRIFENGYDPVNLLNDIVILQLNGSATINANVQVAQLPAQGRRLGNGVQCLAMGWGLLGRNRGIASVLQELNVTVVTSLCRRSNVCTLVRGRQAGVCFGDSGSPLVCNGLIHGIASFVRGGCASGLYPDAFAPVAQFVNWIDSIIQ
Nature of the data set: Elastase inhibitory activity (colorimetric substrate Suc-Ala-Ala-Ala-pNA, 410 nm). Type of data set: biochemical. As to conditions: for remaining activity at 1 µg/mL: 1 ug/ml; for remaining activity at 1 µg/mL / remaining activity at 5 µg/mL / remaining activity at 25 µg/mL: average of three runs, water = 100, read-out: Elastase Activity (% of Control); for remaining activity at 5 µg/mL: 5 ug/ml; for remaining activity at 25 µg/mL: 25 ug/ml; for elastase inhibitory effect: at the concentrations tested.

Data set [5] has as its system Propionibacterium acne. Nature of the data set: Zone of inhibition (agar well diffusion technique). Type of data set: cell-based. On the procedure:
as §1
Agar plates were prepared by first pouring sterile molten agar into petriplates to a depth of 6mm. After allowing the agar to solidify sufficiently, a well of 10 mm diameter was prepared by carefully punching and removing a 10 mm diameter plug of agar without lifting the surrounding medium. In this experiment, all cultures used were adjusted to the turbidity of 0.5 McFarland per the standard procedure and then 0.1 ml of each culture was spread plated onto the agar plates. Appropriate controls were maintained.
Stock solutions of the actives to be tested were prepared by dissolving 1 mg of each of the actives, Sytenol A bakuchiol and salicylic acid, in separate 5 ml quantities of dimethyl sulfoxide (DMSO) at room temperature: though slight warming was employed to expedite the dissolution of the salicylic acid. These stock solutions were then diluted or mixed and diluted to produce sample solutions having the concentrations of each active as noted in Table 4 and the well of each plate filled with the appropriate solution by capillary pipette. Nothing was placed in the well of the control.
Following inoculation and addition of the test sample to the well, each plate was then covered and incubated for 48 hours at 37 °C. Following incubation, the plates were removed and the zones of inhibition recorded and tabulated. […] When both actives were present at one-half the median inhibitory concentration, […] (Sample F); however, it seemed that the apparent ineffectiveness of the salicylic acid at this level appeared to offset or counteract the effectiveness of the bakuchiol. Consequently, at least for salicylic acid, at least one-half and preferably at least the median inhibitory concentration of the dermatological acid should be used.

SMILES strings stand for the structures. Where two headings read alike, the source gives them in different places.

On to `C=C[C@@](C)(/C=C/c1ccc(O)cc1)CCC=C(C)C` [Bakuchiol], for which the “Collagenase median inhibitory concentration (IC50)” value in data set [1] is ~0.1 % (w/w). For the same compound, in data set [2], the primary irritation result was “NON-PRIMARY IRRITANT” and the sensitization entry is on record as “NON-PRIMARY SENSITIZER”. Further, in the data set on Propionibacterium acne [3] (48 hrs at 37°C, read-out: IC50), the IC50 was 0.6 µg/mL. In data set [4], the remaining activity at 1 µg/mL stood at 31%, the remaining activity at 5 µg/mL is 65%, the remaining activity at 25 µg/mL was found to be 77% and the elastase inhibitory effect result is given as “clear elastase inhibition at all concentrations tested”. Also, the zone of inhibition at 0.3 µg/mL in the data set with Propionibacterium acne [5] (Propionibacterium, Sample A: Bakuchiol 0.3 µg/ml) was 35 mm. The zone of inhibition at 0.6 µg/mL in the data set on Propionibacterium acne [5] (Propionibacterium, Sample B: Bakuchiol 0.6 µg/ml) was 37 mm.
Regarding `CC1=C(/C=C/C(C)=C/C=C/C(C)=C/CO)C(C)(C)CCC1` [Retinol, reference compound], in data set [4], the remaining activity at 1 µg/mL was determined as 87%, the remaining activity at 5 µg/mL came out at 138%, the remaining activity at 25 µg/mL turned out to be 416% and the elastase inhibitory effect entry is listed as “no statistically significant elastase inhibitory effect”.
For `O=C(O)c1ccccc1O` [Salicylic acid, 2-hydroxybenzoic acid], the IC50 in the data set on Propionibacterium acne [3] (48 h) was 29 µg/mL. Further, in the data set on Propionibacterium acne [5] (Propionibacterium), the zone of inhibition at 29 µg/mL turned out to be 12 mm and the zone of inhibition at 58 µg/mL was determined as 12 mm. Also, the “Zone of Inhibition” value with Propionibacterium acne [5] (Sample C: Salicylic acid 14.5 µg/ml) was “No Inhibition”.

(Values after patent EP2144590B1, “SKIN TREATMENT COMPOSITIONS AND METHODS” (Sytheon Ltd., priority 2007, dated 2008).)
